Test results from patent publication US20170334899A1, “AMINO-SUBSTITUTED ISOTHIAZOLES” (Bayer Pharma Aktiengesellschaft, priority 2014, published 2017).

Assays:
CDK2/CycE = target: T1, CDK2/CycE (Homo sapiens, UniProt P24941); experiment: CDK2/CycE kinase assay (TR-FRET); assay type: biochemical; conditions: avg, read-out: CDK2 avg (IC50 [mol/l])
T1 construct: GST; purchased ProQinase GmbH (Freiburg, Germany); host or cells: insect cells (Sf9)
How it was run: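 Read-out is a TR-FRET 665/620 nm emission ratio from EDTA-stopped reactions detected with anti-pRB(pSer807/pSer811), Eu-labelled anti-mouse IgG and streptavidin-XL665, scaled between no-enzyme and uninhibited wells. Reaction: Sf9-expressed GST-CDK2/GST-CycE, 15 min compound preincubation, 10 μM ATP, 0.75 μM biotin-peptide, 25 min, 22° C., pH 8.0 Tris buffer.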

[1] = target: T2, catalytic domain of human Bub1 (amino acids 704-1085) (Homo sapiens, UniProt O43683); experiment: Bub1 kinase assay (TR-FRET); assay type: biochemical; conditions: 10 μM ATP, avg, read-out: Bub1 avg (IC50 [mol/l])
T2 construct: catalytic domain of human Bub1 (amino acids 704-1085); His6 (N); made in house; host or cells: insect cells (Hi5)
How it was run: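 Readout is the 665/620 nm TR-FRET ratio from anti-phosphoserine antibody, Eu-labelled anti-mouse IgG and streptavidin-XL665, scaled between no-enzyme and uninhibited controls. Reaction: 1 μM biotinylated peptide, 10 μM ATP, 60 min, 22 °C, after 15 min compound preincubation with His6-Bub1 (704-1085, insect-expressed, ~200 ng/ml).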

T2 sequence (O43683 704-1085): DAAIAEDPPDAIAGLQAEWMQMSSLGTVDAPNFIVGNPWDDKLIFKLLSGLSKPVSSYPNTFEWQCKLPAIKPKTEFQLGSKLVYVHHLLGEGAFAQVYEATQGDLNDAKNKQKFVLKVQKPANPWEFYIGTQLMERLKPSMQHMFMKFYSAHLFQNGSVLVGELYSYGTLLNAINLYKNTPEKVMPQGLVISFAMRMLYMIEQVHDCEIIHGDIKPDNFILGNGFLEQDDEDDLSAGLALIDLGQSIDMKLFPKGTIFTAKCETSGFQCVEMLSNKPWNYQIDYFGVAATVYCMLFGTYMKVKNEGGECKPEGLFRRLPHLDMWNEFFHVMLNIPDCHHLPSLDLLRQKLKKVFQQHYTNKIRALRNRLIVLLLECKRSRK

Row | IC50 (CDK2/CycE) [µM] | IC50 [1] [µM] | Structure (SMILES)
1 | > 20 | > 20 | Cc1nsc(Nc2cnc(C(F)(F)F)cn2)c1C(=O)Nc1ccc(C(=O)N2CCN(CC(F)(F)F)CC2)cc1 [Example 260, 3-methyl-N-(4-{[4-(2,2,2-trifluoroethyl)piperazin-1-yl]carbonyl}phenyl)-5-{[5-(trifluoromethyl)pyrazin-2-yl]amino}-1,2-thiazole-4-carboxamide]
2 | > 20 | 3.2 | Cc1nsc(Nc2cc(C#N)ccn2)c1C(=O)Nc1cccc(C(=O)NC(C)C)c1 [Example 254, 5-[(4-cyanopyridin-2-yl)amino]-N-[3-(isopropylcarbamoyl)phenyl]-3-methyl-1,2-thiazole-4-carboxamide]
3 | > 20 | > 20 | Cc1nsc(Nc2cnc3ccccc3n2)c1C(=O)Nc1cccc(NS(=O)(=O)C2CCN(CC(F)F)CC2)c1 [Example 282, N-[3-({[1-(2,2-difluoroethyl)piperidin-4-yl]sulfonyl}amino)phenyl]-3-methyl-5-(quinoxalin-2-ylamino)-1,2-thiazole-4-carboxamide]
4 | > 20 | > 20 | Cc1nsc(Nc2cnc(C(F)(F)F)cn2)c1C(=O)Nc1ccc(OC2CCN(CCC(F)(F)F)C2)nc1 (stereo not shown) [Example 298, 3-methyl-5-{[5-(trifluoromethyl)pyrazin-2-yl]amino}-N-(6-{[1-(3,3,3-trifluoropropyl)pyrrolidin-3-yl]oxy}pyridin-3-yl)-1,2-thiazole-4-carboxamide]
5 | > 20 | > 20 | Cc1nsc(Nc2cnc(C(F)(F)F)cn2)c1C(=O)Nc1ccc(N(C)C)c(OCCCN(C)CCC(F)(F)F)c1 [Example 300, N-[4-(dimethylamino)-3-{3-[methyl(3,3,3-trifluoropropyl)amino]propoxy}phenyl]-3-methyl-5-{[5-(trifluoromethyl)pyrazin-2-yl]amino}-1,2-thiazole-4-carboxamide]
6 | ≥ 20 | ≥ 20 | Cc1nsc(Nc2cnc(C(F)(F)F)cn2)c1C(=O)Nc1ccc(F)c(OCCCNCC(F)(F)F)c1 [Example 306, N-(4-fluoro-3-{3-[(2,2,2-trifluoroethyl)amino]propoxy}phenyl)-3-methyl-5-{[5-(trifluoromethyl)pyrazin-2-yl]amino}-1,2-thiazole-4-carboxamide]
7 | 8.4 | > 20 | CCN1CCN(C(=O)c2ccc(NC(=O)c3c(C)nsc3Nc3cncc(C(F)(F)F)n3)cc2)CC1 [Example 275, N-{4-[(4-ethylpiperazin-1-yl)carbonyl]phenyl}-3-methyl-5-{[6-(trifluoromethyl)pyrazin-2-yl]amino}-1,2-thiazole-4-carboxamide]
8 | > 20 | > 20 | Cc1nsc(Nc2cncc(C(F)(F)F)n2)c1C(=O)Nc1ccc(OCCO)nc1 [Example 276, N-[6-(2-hydroxyethoxy)pyridin-3-yl]-3-methyl-5-{[6-(trifluoromethyl)pyrazin-2-yl]amino}-1,2-thiazole-4-carboxamide]
9 | > 20 | > 20 | Cc1nsc(Nc2cnc(C(F)(F)F)cn2)c1C(=O)Nc1ccc(OC2CCN(CC(F)(F)F)C2)nc1 (stereo not shown) [Example 297, 3-methyl-N-(6-{[1-(2,2,2-trifluoroethyl)pyrrolidin-3-yl]oxy}pyridin-3-yl)-5-{[5-(trifluoromethyl)pyrazin-2-yl]amino}-1,2-thiazole-4-carboxamide]
10 | > 20 | > 20 | Cc1nsc(Nc2cnc(C(F)(F)F)cn2)c1C(=O)Nc1ccc(C(=O)NC2CN(CC(F)(F)F)C2)cc1 [Example 270, 3-methyl-N-(4-{[1-(2,2,2-trifluoroethyl)azetidin-3-yl]carbamoyl}phenyl)-5-{[5-(trifluoromethyl)pyrazin-2-yl]amino}-1,2-thiazole-4-carboxamide]
11 | > 20 | > 20 | Cc1nsc(Nc2cnc3ccccc3n2)c1C(=O)Nc1cccc(NS(=O)(=O)C2CN(CC(F)(F)F)C2)c1 [Example 285, 3-methyl-5-(quinoxalin-2-ylamino)-N-[3-({[1-(2,2,2-trifluoroethyl)azetidin-3-yl]sulfonyl}amino)phenyl]-1,2-thiazole-4-carboxamide]
12 | > 20 | > 20 | Cc1nsc(Nc2cncc(C(F)(F)F)n2)c1C(=O)Nc1ccc(OCCCO)nc1 [Example 278, N-[6-(3-hydroxypropoxy)pyridin-3-yl]-3-methyl-5-{[6-(trifluoromethyl)pyrazin-2-yl]amino}-1,2-thiazole-4-carboxamide]
13 | ≥ 20 | ≥ 20 | CCN1CCC(Oc2ccc(NC(=O)c3c(C)nsc3Nc3cc(C#N)ccn3)cn2)CC1 [Example 26, 5-[(4-Cyanopyridin-2-yl)amino]-N-{6-[(1-ethylpiperidin-4-yl)oxy]pyridin-3-yl}-3-methyl-1,2-thiazole-4-carboxamide]
14 | > 20 | > 20 | Cc1nsc(Nc2cnc(C(F)(F)F)cn2)c1C(=O)Nc1ccc(C(=O)NC2CCN(CC(F)F)CC2)cc1 [Example 259, N-(4-{[1-(2,2-difluoroethyl)piperidin-4-yl]carbamoyl}phenyl)-3-methyl-5-{[5-(trifluoromethyl)pyrazin-2-yl]amino}-1,2-thiazole-4-carboxamide]
15 | ≥ 20 | ≥ 20 | Cc1nsc(Nc2cnc(C(F)(F)F)cn2)c1C(=O)Nc1ccc(OCCNCC(F)(F)F)nc1 [Example 322, 3-methyl-N-(6-{2-[(2,2,2-trifluoroethyl)amino]ethoxy}pyridin-3-yl)-5-{[5-(trifluoromethyl)pyrazin-2-yl]amino}-1,2-thiazole-4-carboxamide]
16 | ≥ 20 | ≥ 20 | Cc1nsc(Nc2cnc3ccccc3n2)c1C(=O)Nc1ccc(OC2CCN(CC(F)(F)F)CC2)nc1 [Example 21, 3-Methyl-5-(quinoxalin-2-ylamino)-N-(6-{[1-(2,2,2-trifluoroethyl)piperidin-4-yl]oxy}-pyridin-3-yl)-1,2-thiazole-4-carboxamide]
17 | > 20 | > 20 | Cc1nsc(Nc2cnc3ccccc3n2)c1C(=O)Nc1cccc(NS(=O)(=O)C2CCN(C(=O)OC(C)(C)C)CC2)c1 [Example 258, tert-butyl 4-{[3-({[3-methyl-5-(quinoxalin-2-ylamino)-1,2-thiazol-4-yl]carbonyl}amino)phenyl]sulfamoyl} piperidine-1-carboxylate]
18 | ≥ 20 | ≥ 20 | Cc1nsc(Nc2cnc(C(F)(F)F)cn2)c1C(=O)Nc1ccc(F)c(OC2CCN(CC(F)(F)F)C2)c1 (stereo not shown) [Example 315, N-(4-fluoro-3-{[1-(2,2,2-trifluoroethyl)pyrrolidin-3-yl]oxy}phenyl)-3-methyl-5-{[5-(trifluoromethyl)pyrazin-2-yl]amino}-1,2-thiazole-4-carboxamide]
19 | 14 | > 20 | Cc1nsc(Nc2cnc3ccccc3n2)c1C(=O)Nc1cccc(NS(=O)(=O)C2CCCN(C(=O)OCc3ccccc3)C2)c1 (stereo not shown) [Example 291, benzyl 3-{[3-({[3-methyl-5-(quinoxalin-2-ylamino)-1,2-thiazol-4-yl]carbonyl}amino)phenyl]sulfamoyl} piperidine-1-carboxylate]
20 | > 20 | > 20 | Cc1nsc(Nc2cnc(C(F)(F)F)cn2)c1C(=O)Nc1ccc(N(C)C)c(OCCCN(C)CC(F)(F)F)c1 [Example 299, N-[4-(dimethylamino)-3-{3-[methyl(2,2,2-trifluoroethyl)amino]propoxy}phenyl]-3-methyl-5-{[5-(trifluoromethyl)pyrazin-2-yl]amino}-1,2-thiazole-4-carboxamide]
